What was measured:
[1] = system: PC-3 prostate cancer cells; experiment: Example T: sensitisation of PC-3 cells to doxorubicin, oxaliplatin, paclitaxel or vincristine, Wst1; type: cell-based, human; settings: PC-3 cells, 72 hours; for viability at 2.5 µM / viability at 5 µM: Homo sapiens, Wst1, vehicle = 100, read-out: No Chemo: percent cell survival; for viability at 2.5 µM: compound 2.5 μM alone; for Doxorubicin 3.5 μM: percent cell survival / Oxaliplatin 100 μM: percent cell survival / Paclitaxel 50 μM: percent cell survival / Vincristine 100 nM: percent cell survival: chemotherapy agent alone normalized to 100%; for viability at 5 µM: compound 5 μM alone
[2] = system: PC3 human prostate cancer cells; experiment: Example S: in vitro anticancer screen, PC-3 cells, Wst1; type: cell-based; settings: Homo sapiens, PC-3, approximately 20 hours, Wst1, read-out: PC-3, percent of cancer cell survival relative to vehicle treated cells
Description: Activity against PC3 human prostate cancer cells in vitro was assessed by a similar method. PC-3 prostate cancer cells were plated at 2×10^4 cells/well in 96 well flat bottom tissue culture plates, and incubated for approximately 20 hours with vehicle or test compounds at concentrations of 0.4, 0.5 or 2.5 μM as indicated for specific compounds in the right-hand column of Table 37. A 1/10th volume of Wst1 dye was added/well and incubated for two hours in the cell culture incubator. Samples were analyzed in triplicate on an EL800 Universal Microplate Reader at 450 nm, reference wavelength 630 nm.
(§1) Numerical values in the Table 37 represent percent of cancer cell survival relative to vehicle treated cells at the indicated concentrations, with values under 100 indicating anticancer cytotoxic activity at the drugs concentrations tested.

[3] = system: 4T1 murine breast cancer cells; experiment: Example S: in vitro anticancer screen, 4T1 cells, Wst1; type: cell-based, mouse; settings: Mus musculus, 4T1, 18 h, 18 hr, Wst1; for viability at 1 µM: read-out: 4T1 1 μM, percent of cancer cell survival relative to vehicle treated cells; for viability at 5 µM: read-out: 4T1 5 μM, percent of cancer cell survival relative to vehicle treated cells
Description: Anticancer activity against 4T1 murine breast cancer cells cancer cells was assessed in vitro by seeding 1×10^4 cells/well in flat bottom culture plates, then treating with selected 1 μM or 5 μM concentrations of compounds for 18 hr after plating. Then 10 μL of Wst1 dye reagent, a tetrazolium dye indicator for […], was added/well and incubated approximately 2 hr before being assayed on the Biotek EL800 Universal microplate reader (450 nm, reference 630 nm).
as §1

THP-1 cells = experiment: Example D: LPS-triggered THP-1 cell death assay, acute/5-hour and chronic/48-hour; type: cell-based, Human; settings: 10 ng/ml LPS, 0.1 μM test compound, 48 hours
Description: Compounds of the invention were tested at 0.1 μM versus AC in the LPS-triggered THP-1 cell death assay. Both acute/5-hour and chronic/48-hour phases of cell death were assessed. Compounds were screened in batches with DMSO as the negative control and AC as the high activity control.

[4] = compound 2.5 μM + doxorubicin 3.5 μM
[5] = compound 2.5 μM + oxaliplatin 100 μM
[6] = compound 2.5 μM + paclitaxel 50 μM
[7] = compound 2.5 μM + vincristine 100 nM
[8] = compound 5 μM + doxorubicin 3.5 μM
[9] = compound 5 μM + oxaliplatin 100 μM
[10] = compound 5 μM + paclitaxel 50 μM
[11] = compound 5 μM + vincristine 100 nM

Structure (SMILES)	viability at 2.5 µM [1] [%]	Doxorubicin 3.5 μM: percent cell survival [1, 4] [%]	Oxaliplatin 100 μM: percent cell survival [1, 5] [%]	Paclitaxel 50 μM: percent cell survival [1, 6] [%]	Vincristine 100 nM: percent cell survival [1, 7] [%]	viability at 2.5 µM [2] [%]	viability at 1 µM [3] [%]	viability at 5 µM [3] [%]	viability at 5 µM [1] [%]	Doxorubicin 3.5 μM: percent cell survival [1, 8] [%]	Oxaliplatin 100 μM: percent cell survival [1, 9] [%]	Paclitaxel 50 μM: percent cell survival [1, 10] [%]	Vincristine 100 nM: percent cell survival [1, 11] [%]	viability at 5 µM [2] [%]	Viable cell percent change, Chronic/48-hour, Mean (THP-1 cells) [%]
CCCCCCOCCCCCCCCNc1cnc2ccccc2c1 [EL, N-[8-(Hexyloxy)octyl]quinolin-3-amine]	41.8	73.7	99.4	86.1	70.8	41.8	108	39.4							
COCCCCCNc1ccnc2ccccc12 [CM, N-(5-Methoxypentyl)quinolin-4-amine]							104	221	37.8	72.6	78.1	74.8	81.3	37.8	
CCOCCCCCCCCn1cnc2cnc3ccccc3c21 [CD, 1-(8-Ethoxyoctyl)-1H-imidazo[4,5-c]quinoline]	16.6	19.5	20.1	23.2	17.1	16.6									7.55
CCCCCCCCCCCCn1cnc2cnc3ccccc3c21 [FY, 1-Dodecyl-1H-imidazo[4,5-c]quinoline]	36	74.6	91.5	91	80.1	36	95.2	26.8							
COCCCCCCCCn1cnc2cnc3ccccc3c21 [CE, 1-(8-Methoxyoctyl)-1H-imidazo[4,5-c]quinoline]	16.2	44.3	18.8	23.5	15.6	16.2									4.71
CCCCCCCCCCCCOCCn1cnc2c(N(C)C)nc3ccccc3c21 [FH, 1-[2-(Dodecyloxy)ethyl]-N,N-dimethyl-1H-imidazo[4,5-c]quinolin-4-amine]							101	102	89	79.6	82.3	131.8	114.9	89	
CCCCCCCCCCCCCCCCn1cnc2cnc3ccccc3c21 [FE, 1-Hexadecyl-1H-imidazo[4,5-c]quinoline]							108	31.7	34.2	46.8	67.6	113.7	37.3	34.2	
CCCCCCOc1cccc(OCCCn2cnc3cnc4ccccc4c32)c1 [GD, 1-{3-[3-(Hexyloxy)phenoxy]propyl}-1H-imidazo[4,5-c]quinoline]	24.3	39.5	26.7	27	23.5	24.3									
c1ccc(COc2ccccc2OCCCNc2ccnc3ccccc23)cc1 [CU, N-{3-[2-(Benyloxy)phenoxy]propyl}quinolin-4-amine]	37.6	65	74.9	100.2	56.7	37.6									41.84
CCOCc1nc2cnc3ccccc3c2n1CC(C)(C)O [FB, 1-[2-(Ethoxymethyl)-1H-imidazo[4,5-c]quinolin-1-yl]-2-methylpropan-2-ol]	97.7	89.1	95.5	93.2	98.6	97.7	92.7	90							
CCCCCCOc1ccccc1C(=O)NCCNc1ccnc2ccccc12 [EB, 2-(Hexyloxy)-N-[2-(quinolin-4-ylamino)ethyl]benzamide]	94.4	93.4	98.8	143.3	98.2	94.4									35.89
CCCCCCCCCCCCCCCCn1cnc2c(N)nc3ccccc3c21 [FF, 1-Hexadecyl-1H-imidazo[4,5-c]quinolin-4-amine]							103	102	93	90.7	95.2	136.1	110.1	93	
CCCCCCCCCCOCCCn1cnc2cnc3ccccc3c21 [FZ, 1-[3-(Decyloxy)propyl]-1H-imidazo[4,5-c]quinoline]							91.4	56.6	32.7	39.6	67.7	114.8	38.5	32.7	
CCCCCCOc1ccccc1C(=O)NCCCNc1ccnc2ccccc12 [EC, 2-(Hexyloxy)-N-[3-(quinolin-4-ylamino)propyl]benzamide]	94.6	82.8	100.4	136.8	91.6	94.6									47.40
CCCCCCOCCCCCCCCn1ccc2ccccc21 [FW, 1-[8-(Hexyloxy)octyl]-1H-indole]									98.1	102.7	109.6	128.5	104.6	98.1	1.27
CCCCCCCCCCCCCCCc1nc2c(O)nc3ccccc3c2n1CC(C)C [FD, 1-Isobutyl-2-pentadecyl-1H-imidazo[4,5-c]quinolin-4-ol]							106	112	112	101	85.3	95.6	98.7	112	
CCCCCCOCCCCCCCCn1cnc(-c2ccccc2)c1 [FR, 1-[8-(Hexyloxy)octyl]-4-phenyl-1H-imidazole]	101	93.2	102.5	102.5	99.1	101									15.96
CCOc1ccccc1OCCCNc1ccnc2ccccc12 [CS, N-[3-(2-Ethoxyphenoxy)propyl]quinolin-4-amine]	41.3	79	84.2	69.7	82.8	41.3									66.27

Reference: patent US20250034139A1, “AMINE COMPOUNDS HAVING ANTI-INFLAMMATORY, ANTIFUNGAL, ANTIPARASITIC, AND ANTICANCER ACTIVITY” (PHARMA CINQ, LLC, priority 2013, published 2025)
